We go through 1 substance from US12121523B2, “Method of treatment of attention deficit/hyperactivity disorder (ADHD)” (Supernus Pharmaceuticals, Inc., priority 2008, dated 2024).

The target of assay [1] is noradrenergic reuptake transporters (Homo sapiens, UniProt P23975). As to conditions: Tatsumi et al 1997; quantity type not given; cited from earlier work.
Another assay has as its target 5-HT6 (h) (Homo sapiens, UniProt P50406). As to conditions: 10 μM viloxazine; [3H]LSD 2 nM; 120 min/37° C. An excerpt: (§1) Briefly, recombinant 5-HT1B OR 5-HT7 receptors were expressed in a CHO cell line. The receptors were then saturated with a tritiated receptor-specific ligand at concentrations known to be saturating.
Another assay concerns the target 5-HT4e (h) (Homo sapiens, UniProt Q13639). As to conditions: 10 μM viloxazine; [3H]GR 113808 0.3 nM; 60 min/37° C.
From the text: as §1

The target in the next assay is 5-HT1D (Rattus norvegicus, UniProt P28565). As to conditions: 10 μM viloxazine; [3H]serotonin 1 nM; 60 min/22° C.
Chain of 5-HT1D (P28565 whole entry): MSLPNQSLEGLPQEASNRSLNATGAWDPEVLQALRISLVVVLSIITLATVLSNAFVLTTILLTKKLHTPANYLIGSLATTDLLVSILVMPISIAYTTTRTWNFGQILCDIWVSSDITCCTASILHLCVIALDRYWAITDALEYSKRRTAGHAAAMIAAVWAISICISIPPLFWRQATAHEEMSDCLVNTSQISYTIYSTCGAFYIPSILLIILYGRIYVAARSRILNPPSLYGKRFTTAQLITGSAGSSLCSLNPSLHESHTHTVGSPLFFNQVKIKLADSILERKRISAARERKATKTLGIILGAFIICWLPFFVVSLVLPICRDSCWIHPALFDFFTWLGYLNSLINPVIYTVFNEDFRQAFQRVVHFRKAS
From the text: as §1

A further assay addresses 5-HT5A (h) (Homo sapiens, UniProt P47898). As to conditions: 10 μM viloxazine; [3H]LSD 1 nM; 60 min/37° C.
From the text: as §1

The target of a further assay is 5-HT3 (h) (Homo sapiens, UniProt P46098). As to conditions: 10 μM viloxazine; [3H]BRL 43694 0.5 nM; 120 min/22° C.
Chain of 5-HT3 (h) (P46098 24-478): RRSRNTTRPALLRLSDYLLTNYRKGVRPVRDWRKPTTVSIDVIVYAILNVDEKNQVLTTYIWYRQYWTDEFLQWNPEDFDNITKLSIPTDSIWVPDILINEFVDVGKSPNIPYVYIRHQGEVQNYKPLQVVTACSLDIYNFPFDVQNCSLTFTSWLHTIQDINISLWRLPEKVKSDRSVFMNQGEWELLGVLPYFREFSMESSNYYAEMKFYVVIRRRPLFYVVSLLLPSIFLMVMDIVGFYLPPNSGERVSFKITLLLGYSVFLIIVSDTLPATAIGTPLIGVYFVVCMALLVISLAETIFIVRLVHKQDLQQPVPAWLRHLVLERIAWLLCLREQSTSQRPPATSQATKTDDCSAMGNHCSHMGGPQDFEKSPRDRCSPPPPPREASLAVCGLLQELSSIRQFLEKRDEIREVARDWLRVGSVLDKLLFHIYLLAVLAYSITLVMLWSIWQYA
From the text: as §1

The next assay addresses 5-HT1B (h) (Homo sapiens, UniProt P28222). The protocol:
The apparent dissociation constants for antagonists Kb were calculated using the modified Cheng Prusoff equation.

Chain of 5-HT5A (h) (P47898 whole entry): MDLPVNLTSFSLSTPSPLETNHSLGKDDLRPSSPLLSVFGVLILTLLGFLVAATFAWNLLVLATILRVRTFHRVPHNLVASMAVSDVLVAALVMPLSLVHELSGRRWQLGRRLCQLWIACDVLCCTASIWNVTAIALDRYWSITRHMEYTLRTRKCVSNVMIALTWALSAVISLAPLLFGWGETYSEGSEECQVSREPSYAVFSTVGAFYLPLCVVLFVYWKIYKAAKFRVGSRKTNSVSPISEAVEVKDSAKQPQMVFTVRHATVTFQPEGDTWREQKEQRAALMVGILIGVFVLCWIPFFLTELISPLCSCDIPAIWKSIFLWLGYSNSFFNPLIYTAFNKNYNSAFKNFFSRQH
Chain of 5-HT4e (h) (Q13639 1-378 isoform Q13639-5): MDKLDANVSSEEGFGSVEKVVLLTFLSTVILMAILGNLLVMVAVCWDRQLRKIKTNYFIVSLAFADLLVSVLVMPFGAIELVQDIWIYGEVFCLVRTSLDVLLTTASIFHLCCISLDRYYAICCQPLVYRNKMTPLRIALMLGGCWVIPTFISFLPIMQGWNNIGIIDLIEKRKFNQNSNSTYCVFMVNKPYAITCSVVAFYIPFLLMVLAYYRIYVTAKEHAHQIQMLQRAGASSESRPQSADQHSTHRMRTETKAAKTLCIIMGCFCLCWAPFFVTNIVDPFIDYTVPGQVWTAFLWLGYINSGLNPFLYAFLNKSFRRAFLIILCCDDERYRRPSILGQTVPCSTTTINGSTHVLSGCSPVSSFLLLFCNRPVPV
Chain of 5-HT6 (h) (P50406 whole entry): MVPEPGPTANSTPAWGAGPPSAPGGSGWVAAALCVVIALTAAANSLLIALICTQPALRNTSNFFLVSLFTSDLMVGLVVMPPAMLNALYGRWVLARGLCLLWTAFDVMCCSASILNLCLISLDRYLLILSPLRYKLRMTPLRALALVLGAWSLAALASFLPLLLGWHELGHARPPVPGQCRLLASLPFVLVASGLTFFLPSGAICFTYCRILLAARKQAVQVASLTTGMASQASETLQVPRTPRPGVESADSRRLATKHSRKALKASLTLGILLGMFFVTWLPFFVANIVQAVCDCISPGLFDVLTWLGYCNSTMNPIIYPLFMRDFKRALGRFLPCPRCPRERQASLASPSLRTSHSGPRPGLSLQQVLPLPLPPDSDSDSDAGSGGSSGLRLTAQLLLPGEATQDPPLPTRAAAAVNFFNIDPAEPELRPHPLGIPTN
Chain of 5-HT1B (h) (P28222 whole entry): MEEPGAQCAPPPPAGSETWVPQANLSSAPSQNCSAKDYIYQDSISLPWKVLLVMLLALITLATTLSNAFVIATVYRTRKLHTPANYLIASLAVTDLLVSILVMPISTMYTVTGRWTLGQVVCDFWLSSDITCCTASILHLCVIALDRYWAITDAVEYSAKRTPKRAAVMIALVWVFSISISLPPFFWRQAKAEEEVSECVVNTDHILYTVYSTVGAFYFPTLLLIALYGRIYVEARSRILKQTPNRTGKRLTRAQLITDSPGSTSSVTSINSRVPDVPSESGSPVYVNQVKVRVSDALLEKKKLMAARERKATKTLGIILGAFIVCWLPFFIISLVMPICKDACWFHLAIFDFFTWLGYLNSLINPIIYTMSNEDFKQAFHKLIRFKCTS
Chain of noradrenergic reuptake transporters (P23975 whole entry): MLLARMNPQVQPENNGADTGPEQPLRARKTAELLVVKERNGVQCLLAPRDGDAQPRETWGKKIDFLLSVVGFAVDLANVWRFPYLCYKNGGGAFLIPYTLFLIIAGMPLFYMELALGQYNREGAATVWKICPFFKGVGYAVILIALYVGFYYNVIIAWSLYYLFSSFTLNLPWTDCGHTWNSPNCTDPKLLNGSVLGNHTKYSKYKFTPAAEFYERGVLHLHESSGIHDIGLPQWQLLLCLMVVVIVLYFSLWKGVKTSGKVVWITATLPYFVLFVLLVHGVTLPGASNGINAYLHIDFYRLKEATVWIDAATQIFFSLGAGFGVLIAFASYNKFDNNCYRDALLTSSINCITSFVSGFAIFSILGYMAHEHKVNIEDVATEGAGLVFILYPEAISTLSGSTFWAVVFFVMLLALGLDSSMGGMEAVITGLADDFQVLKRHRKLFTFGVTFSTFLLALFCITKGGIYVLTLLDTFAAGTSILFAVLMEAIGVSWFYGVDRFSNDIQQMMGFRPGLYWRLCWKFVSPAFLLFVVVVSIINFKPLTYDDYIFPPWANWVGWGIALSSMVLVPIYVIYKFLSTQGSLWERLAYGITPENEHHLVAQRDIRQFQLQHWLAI

As for Viloxazine, the “inhibition of noradrenergic reuptake transporters” value in assay [1] was 155 nM. The “% Inhib.” value is listed as 6% on 5-HT6 (h); 16% on 5-HT4e (h); 18% at 5-HT1D; 15% on 5-HT5A (h); 18% on 5-HT3 (h). For the same substance, the “antagonist activity (in words)” value at 5-HT1B (h) is given as “specific antagonist activity”.
